Common to all, as to assay type: cell-based
One test concerns Botryosphaeri. Description: In vitro mycelial/spore growth on potato-sucrose-agar, percent disease control (BD). The note with it: read-out: % controlled, BD. Here is the method: (§1) The compounds of this invention were dissolved respectively in acetone in an amount equal to 10% of the final volume and then in purified water at the concentration of 100 ppm and 50 ppm.
(§2) Each of the solution was mixed with potato-sucrose-agar medium in 6" petri dish and one of the fungi was spotted at the center of the dish. The dish was incubated in growth room for several days. The percent disease control was derived from the radii of spore growth. The screening tests in vitro condition are well-known to those skilled in the art.
(§3) The following fungi were used for the screening.
4) Bo. do (Ma); Botryosphaeri

The next test concerns Botritis cinerea. Description: In vitro mycelial/spore growth on potato-sucrose-agar, percent disease control (BC). The note with it: read-out: % controlled, BC. The protocol:
as §1, §2, §3
10) Bo. ci.; Botritis cinerea

In another test the test system is GC. The test is described as follows: In vitro mycelial/spore growth on potato-sucrose-agar, percent disease control (GC). The note with it: read-out: % controlled, GC; for inhibition of growth at 50 ppm: GC. The protocol: as §1, §2, §3
A further test has as its system Fusarium moniliforme. The test is described as follows: In vitro mycelial/spore growth on potato-sucrose-agar, percent disease control (FM). As to conditions: Fusarium verticillioides, Fusarium moniliforme, read-out: % controlled, FM. Here is the method: as §1, §2, §3
8) Fu. mo.; Fusarium moniliforme

Another test deals with Pyricalaria oryzae. Description: In vitro mycelial/spore growth on potato-sucrose-agar, percent disease control (PO). As to conditions: read-out: % controlled, PO. Here is the method:
as §1, §2, §3
6) Py. or.; Pyricalaria oryzae

The subject of a further test is Phytophthora capsisi. The test is described as follows: In vitro mycelial/spore growth on potato-sucrose-agar, percent disease control (PC). As to conditions: read-out: % controlled, PC. The protocol:
as §1, §2, §3
2) Phy. ca.; Phytophthora capsisi

For the next test, the system named is Rhizopus sp. Description: In vitro mycelial/spore growth on potato-sucrose-agar, percent disease control (RS, second column). As to conditions: read-out: % controlled, RS; for inhibition of growth at 50 ppm: Rhizopus sp.; for inhibition of growth at 200 ppm: Rhizopus. The protocol: as §1, §2, §3
9) Rhi. sp.; Rhizopus sp.

Another test concerns Rhizoctonia solani. Description: In vitro mycelial/spore growth on potato-sucrose-agar, percent disease control (RS, first column). As to conditions: read-out: % controlled, RS. Here is the method:
as §1, §2, §3
7) Rhi. so.; Rhizoctonia solani

On to `CCOc1ccc([Si]2(Cn3cncn3)CCCC2)cc1` [1-(4-ethoxyphenyl)-1-(1H-1,2,4-triazole-1-yl)methyl-1-silacyclopentane], for which the inhibition of growth at 50 ppm with Botryosphaeri stood at 82%; in the test on Botritis cinerea it was 70%; in the test with GC, 100%; with Fusarium moniliforme it was 68%; with Pyricalaria oryzae it was 100%; in the test with Phytophthora capsisi it was 40%. Further, the inhibition of growth at 50 ppm with Rhizopus sp. worked out at 66%; with Rhizoctonia solani, 72%. Moreover, the inhibition of growth at 200 ppm in the test on Botryosphaeri was 89%; in the test on Botritis cinerea, 74%; with GC, 100%; in the test with Fusarium moniliforme, 79%; in the test on Pyricalaria oryzae, 100%; in the test on Phytophthora capsisi it was 100%. Further, the inhibition of growth at 200 ppm in the test with Rhizopus sp. was 77%; in the test on Rhizoctonia solani, 100%.

In the case of `CC(n1cncn1)[Si]1(c2ccc(Cl)cc2Cl)CCCCC1` (stereo not drawn) [1-(2,4-dichlorophenyl)-1-[α-(1H-1,2,4-triazole-1-yl)ethyl]-1-silacyclohexane], the inhibition of growth at 50 ppm in the test on Botryosphaeri was 100%; in the test on Botritis cinerea, 100%; with GC, 100%; with Fusarium moniliforme it was 100%; with Pyricalaria oryzae it was 100%; in the test with Phytophthora capsisi, 64%. The inhibition of growth at 50 ppm amounted to 54% with Rhizopus sp. and 100% in the test with Rhizoctonia solani. The inhibition of growth at 200 ppm in the test with Botryosphaeri, in the test with Botritis cinerea, with GC, with Fusarium moniliforme, with Pyricalaria oryzae and with Phytophthora capsisi was 100% each time. Besides, the inhibition of growth at 200 ppm in the test with Rhizopus sp. stood at 60%; in the test on Rhizoctonia solani, 100%.

Regarding `CC(n1cncn1)[Si]1(c2ccc(Cl)cc2)CCCC1` (stereo not drawn) [1-(4-chlorophenyl)-1-[α-(1H-1,2,4-triazole-1-yl)ethyl]-1-silacyclopentane], the inhibition of growth at 50 ppm in the test on Botryosphaeri amounted to 100%; in the test on Botritis cinerea it was 100%; with GC it was 100%; in the test with Fusarium moniliforme, 100%; with Pyricalaria oryzae, 100%; in the test on Phytophthora capsisi, 30%. In addition, the inhibition of growth at 50 ppm in the test on Rhizopus sp. worked out at 42%; in the test on Rhizoctonia solani, 100%. For the same compound, the inhibition of growth at 200 ppm in the test on Botryosphaeri, in the test with Botritis cinerea, with GC, with Fusarium moniliforme, with Pyricalaria oryzae and in the test on Phytophthora capsisi was 100% each time. Also, the inhibition of growth at 200 ppm with Rhizopus sp. worked out at 60%; with Rhizoctonia solani, 100%.

Consider `FC(F)(F)c1ccc([Si]2(Cn3cncn3)CCCCC2)cc1` [1-(4-trifluoromethyl)-1-(1H-1,2,4-triazole-1-yl)methyl-1-silacyclohexane], for which the inhibition of growth at 50 ppm amounted to 100% in the test on Botryosphaeri; 93% in the test with Botritis cinerea; 100% in the test on GC; 82% in the test on Fusarium moniliforme; 100% with Pyricalaria oryzae; 75% in the test with Phytophthora capsisi. The inhibition of growth at 50 ppm in the test on Rhizopus sp. worked out at 63%; in the test with Rhizoctonia solani it was 54%. In addition, the inhibition of growth at 200 ppm was 100% in the test on Botryosphaeri; 100% in the test on Botritis cinerea; 100% in the test with GC; 98% in the test on Fusarium moniliforme; 100% with Pyricalaria oryzae; 99% with Phytophthora capsisi. In addition, the inhibition of growth at 200 ppm in the test with Rhizopus sp. was 76%; with Rhizoctonia solani, 80%.

Turning to `Clc1ccc([Si]2(Cn3cncn3)CCCCC2)c(Cl)c1` [1-(2,4-dichlorophenyl)-1-(1H-1,2,4-triazole-1-yl)methyl-1-silacyclohexane], the inhibition of growth at 50 ppm in the test on Botryosphaeri turned out to be 98%; in the test on Botritis cinerea, 97%; in the test with GC, 100%; with Fusarium moniliforme, 100%; in the test on Pyricalaria oryzae, 100%; in the test with Phytophthora capsisi it was 65%. Also, the values for the inhibition of growth at 50 ppm with Rhizopus sp. and with Rhizoctonia solani were 50% and 20%, respectively. Besides, the inhibition of growth at 200 ppm in the test on Botryosphaeri is 100%; in the test with Botritis cinerea, 100%; in the test with GC it was 100%; in the test with Fusarium moniliforme, 100%; in the test on Pyricalaria oryzae, 100%; in the test on Phytophthora capsisi, 87%. For the same compound, the inhibition of growth at 200 ppm in the test with Rhizopus sp. was 72%; in the test on Rhizoctonia solani, 50%.

As to `CC(n1cncn1)[Si]1(c2ccc(F)cc2F)CCCC1` (stereo not drawn) [1-(2,4-difluorophenyl)-1-[α-(1H-1,2,4-triazole-1-yl)ethyl]-1-silacyclopentane], the inhibition of growth at 50 ppm in the test with Botryosphaeri came out at 100%; with Botritis cinerea, 100%; with GC, 100%; in the test on Fusarium moniliforme, 100%; in the test with Pyricalaria oryzae it was 100%; in the test with Phytophthora capsisi, 45%. Besides, the inhibition of growth at 50 ppm in the test with Rhizopus sp. came to 78%; with Rhizoctonia solani it was 79%. For the same compound, the inhibition of growth at 200 ppm in the test on Botryosphaeri was 100%; in the test with Botritis cinerea it was 100%; in the test with GC, 100%; in the test with Fusarium moniliforme, 100%; with Pyricalaria oryzae, 100%; in the test on Phytophthora capsisi, 94%. In addition, the inhibition of growth at 200 ppm with Rhizopus sp. turned out to be 87%; with Rhizoctonia solani, 100%.

`COc1ccc([Si]2(C(C)n3cncn3)CCCC2)cc1` (stereo not drawn) [1-(4-methoxyphenyl)-1-[α-(1H-1,2,4-triazole-1-yl)ethyl]-1-silacyclopentane]: the inhibition of growth at 50 ppm in the test with Botryosphaeri turned out to be 71%; in the test on Botritis cinerea, 81%; in the test with GC it was 100%; with Fusarium moniliforme, 94%; with Pyricalaria oryzae it was 100%; with Phytophthora capsisi it was 50%. For the same compound, the inhibition of growth at 50 ppm with Rhizopus sp. was determined as 59%; with Rhizoctonia solani it was 100%. Further, the inhibition of growth at 200 ppm is 96% with Botryosphaeri; 95% with Botritis cinerea; 100% in the test with GC; 99% with Fusarium moniliforme; 100% in the test with Pyricalaria oryzae; 90% in the test on Phytophthora capsisi. Besides, the inhibition of growth at 200 ppm in the test on Rhizopus sp. was 80%; in the test on Rhizoctonia solani, 100%.

For the compound `CCOc1ccc([Si]2(C(C)n3cncn3)CCCC2)cc1` (stereo not drawn) [1-(4-ethoxyphenyl)-1-[α-(1H-1,2,4-triazole-1-yl)ethyl]-1-silacyclopentane], the inhibition of growth at 50 ppm came out at 70% with Botryosphaeri; 79% in the test with Botritis cinerea; 100% in the test with GC; 93% in the test with Fusarium moniliforme; 100% with Pyricalaria oryzae; 43% with Phytophthora capsisi. Further, the inhibition of growth at 50 ppm with Rhizopus sp. was 63%; with Rhizoctonia solani, 100%. Further, the inhibition of growth at 200 ppm with Botryosphaeri turned out to be 95%; in the test with Botritis cinerea, 94%; in the test on GC, 100%; in the test with Fusarium moniliforme, 100%; in the test on Pyricalaria oryzae it was 100%; with Phytophthora capsisi, 91%. Besides, the inhibition of growth at 200 ppm with Rhizopus sp. was found to be 90%; with Rhizoctonia solani, 100%.

For `Clc1ccc([Si]2(Cn3cncn3)CCCC2)c(Cl)c1` [1-(2,4-dichlorophenyl)-1-(1H-1,2,4-triazole-1-yl)methyl-1-silacyclopentane], the inhibition of growth at 50 ppm in the test on Botryosphaeri was found to be 97%; in the test with Botritis cinerea it was 99%; in the test on GC, 100%; in the test with Fusarium moniliforme it was 100%; in the test with Pyricalaria oryzae, 100%; in the test on Phytophthora capsisi, 72%. Also, the inhibition of growth at 50 ppm came to 59% in the test with Rhizopus sp. and 65% in the test on Rhizoctonia solani. Further, the inhibition of growth at 200 ppm with Botryosphaeri is 100%; in the test on Botritis cinerea, 100%; in the test on GC, 100%; in the test with Fusarium moniliforme it was 100%; in the test with Pyricalaria oryzae, 100%; with Phytophthora capsisi, 79%. For the same compound, the inhibition of growth at 200 ppm with Rhizopus sp. was determined as 70%; in the test on Rhizoctonia solani, 100%.

Source of the values: patent US5455356A, “Fungicidal 1-aryl-1-[α-(triazolyl)alkyl]-1-silacycloalkanes and their preparation methods” (priority 1993, dated 1995).
